The values that follow are results of earlier work, collected in US8260406B2, “System and method for analyzing complex curvature of ECG curves” (Aalborg Universitet, priority 2006, dated 2012).

The test system of this data set is cardiac repolarization (T-wave) in healthy subjects. The settings on record: 30 min after sotalol administration; increase; p<0.05; occurring prior to QT prolongation; PCA of ECG Holter recordings.

Molecules are shown by their SMILES.

As for `CC(C)NCC(O)c1ccc(NS(C)(=O)=O)cc1` (stereo not shown) [sotalol], the “turbulence of repolarization velocity increased by” value was 9.02%.
